Values of other authors, collected in patent publication US20100173015A1, “COMPOSITIONS AND METHODS FOR THE ABSORPTION, CHELATION, AND ELIMINATION OF TRACE ELEMENTS” (priority 2009, published 2010).

Tests used:
[1] = test system: umbilical vein endothelial (HUVE) cells
NQO1 = settings: microarray, in the presence of taxifolin
GSTM1 = settings: microarray, in the presence of taxifolin
CYP2E1 = settings: microarray, in the presence of taxifolin
[2] = test system: human lung embryonic fibroblasts (TIG-1); settings: TIG-1 cells

O=C1c2c(O)cc(O)cc2O[C@H](c2ccc(O)c(O)c2)[C@H]1O [Dihydroquercetin]
50% lethal concentration [1]: > 200 µmol | expression of phase II detoxification enzyme NQO1 (NQO1): upregulated | expression of phase II detoxification enzyme GSTM1 (GSTM1): upregulated | expression of phase I detoxification enzyme CYP2E1 (CYP2E1): down regulated | 50% lethal concentration [2]: > 300 µmol
